Laboratory results taken from publication PMC12467512, “Pharmacological Characterization of the Novel CRF1 Receptor Antagonist, Thiazolo[4,5-d] Pyrimidine Analog, M43” (Biomolecules, 2025).

Target: T1, CRF1R (type 1 receptor for the corticotropin-releasing factor) (Homo sapiens, UniProt P34998)
T1 construct: gene CRHR1
T1 sequence (P34998 24-415): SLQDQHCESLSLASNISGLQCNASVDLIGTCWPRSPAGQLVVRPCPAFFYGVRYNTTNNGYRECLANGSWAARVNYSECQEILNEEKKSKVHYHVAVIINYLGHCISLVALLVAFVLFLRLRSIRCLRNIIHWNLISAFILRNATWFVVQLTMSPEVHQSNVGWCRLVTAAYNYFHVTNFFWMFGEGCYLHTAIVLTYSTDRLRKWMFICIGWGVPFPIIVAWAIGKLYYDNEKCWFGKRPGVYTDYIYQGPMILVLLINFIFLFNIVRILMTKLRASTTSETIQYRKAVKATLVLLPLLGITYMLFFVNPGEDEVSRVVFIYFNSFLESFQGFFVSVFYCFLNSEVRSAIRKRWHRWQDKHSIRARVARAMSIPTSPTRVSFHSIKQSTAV
Assay: inhibition of cAMP accumulation stimulated by […] Tyr0-sauvagine in HEK […] cells stably expressing human CRF1R; also […] shift of agonist potency at […] M43
Format: cell-based

## CCCCN(CC)c1nc(C)nc2c1s/c(=N\O)n2-c1c(Cl)cc(Cl)cc1Cl [M43]
  IC50: 0.0435 µM
